Experimental data as given in patent US11028095B2, “Spiro-lactam and bis-spiro-lactam NMDA receptor modulators and uses thereof” (Aptinyx Inc., priority 2016, dated 2021).

How the values were obtained:
[1] = system: positive (hedonic) 50-kHz ultrasonic vocalizations (USVs); experiment: Positive Emotional Learning (PEL) test; format: in vivo; conditions: rat, PO, one hour after administration
Outline: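 Rats received test compound or vehicle (0.5% carboxymethyl cellulose in saline) 1 h before 3 min of experimenter-delivered rough-and-tumble play in alternating 15 s play and no-stimulation blocks. Frequency-modulated 50-kHz USVs during no-stimulation (CS) periods were counted; animals not habituated beforehand.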

[2] = Microsomal stability (Human); format: in vitro ADME; conditions: human microsomes
Procedure: (§1) Microsomal stability of disclosed compounds was investigated. The following table indicates the percent of compound remaining after 60 minutes.

[3] = Microsomal stability (Rat); format: in vitro ADME; conditions: rat microsomes
Procedure: as §1

Plasma stability (Human) = format: in vitro ADME
Procedure: (§2) Plasma stability of disclosed compounds was investigated. The following table indicates the percent of compound remaining after 60 minutes.

Plasma stability (Rat) = format: in vitro ADME
Procedure: as §2

[4] = biological target: T1, NMDAR2A expressing HEK cell membranes (Homo sapiens, UniProt Q12879); experiment: NMDAR agonist assay, [3H]MK-801 binding, NMDAR2A; format: biochemical; conditions: 50 μM glutamate; for EC50: [3H]MK-801 binding, read-out: NMDAR2A: log EC50 (converted)
T1 construct: expressed in transfected cells; host or cells: HEK cells (membrane extract)
Procedure: (§3) (nonequilibrium conditions).
(§4) The baseline value was determined from the best fit curve of the DPM values modeled using the GraphPad program and the log(agonist) vs. response(three parameters) algorithm was then subtracted from all points in the dataset.

[5] = biological target: T2, NMDAR2B expressing HEK cell membranes (Homo sapiens, UniProt Q13224); experiment: NMDAR agonist assay, [3H]MK-801 binding, NMDAR2B; format: biochemical; conditions: 50 μM glutamate; for EC50: [3H]MK-801 binding, read-out: NMDAR2B log EC50 (converted)
T2 construct: expressed in transfected cells; host or cells: HEK cells (membrane extract)
Procedure: as §3, §4

[6] = biological target: T3, NMDAR2C expressing HEK cell membranes (Homo sapiens, UniProt Q05586+Q14957); experiment: NMDAR agonist assay, [3H]MK-801 binding, NMDAR2C; format: biochemical; conditions: 50 μM glutamate
T3 construct: expressed in transfected cells; host or cells: HEK cells (membrane extract)
Procedure: as §3, §4

[7] = biological target: T4, NMDAR2D expressing HEK cell membranes (Homo sapiens, UniProt O15399); experiment: NMDAR agonist assay, [3H]MK-801 binding, NMDAR2D; format: biochemical; conditions: 50 μM glutamate
T4 construct: expressed in transfected cells; host or cells: HEK cells (membrane extract)
Procedure: as §3, §4

[8] = biological target: T5, NMDAR2C expressing HEK cell membranes (Homo sapiens, UniProt Q14957); experiment: NMDAR agonist assay, [3H]MK-801 binding, NMDAR2C; format: biochemical; conditions: 50 μM glutamate
T5 construct: expressed in transfected cells; host or cells: HEK cells (membrane extract)
Procedure: as §3, §4

[9] = biological target: T6, NMDAR2D expressing HEK cell membranes (Homo sapiens, UniProt O15399+Q05586); experiment: NMDAR agonist assay, [3H]MK-801 binding, NMDAR2D; format: biochemical; conditions: 50 μM glutamate; for EC50: [3H]MK-801 binding, read-out: NMDAR2D: log EC50 (converted)
T6 construct: expressed in transfected cells; host or cells: HEK cells (membrane extract)
Procedure: as §3, §4

[10] = biological target: T7, NMDAR2B expressing HEK cell membranes (Homo sapiens, UniProt Q05586+Q13224); experiment: NMDAR agonist assay, [3H]MK-801 binding, NMDAR2B; format: biochemical; conditions: 50 μM glutamate; [3H]MK-801 binding; read-out: NMDAR2B log EC50 (converted)
T7 construct: expressed in transfected cells; host or cells: HEK cells (membrane extract)
Procedure: as §3, §4

IV pharmacokinetics = format: in vivo; conditions: Sprague Dawley rats, 2 mg/kg, normal saline
Procedure: Sprague Dawley rats were dosed intravenously using a normal saline formulation containing 2 mg/kg of the compounds identified in the below table. The table below summarizes the results of the IV pharmacokinetics.

[11] = Oral pharmacokinetics (plasma, brain, CSF); format: in vivo; conditions: Sprague Dawley rats, per os, 10 mg/kg
Procedure: In another experiment, Sprague Dawley rats were dosed per os using a normal saline formulation containing 10 mg/kg of the compounds identified in the table below. Plasma, brain, and CSF samples were analyzed at various time points over a 24 hour period. The table below summarizes the results of the oral pharmacokinetics.

[12] = system: Sciatic nerve chronic constriction nerve injury; experiment: Bennett nerve injury assay (mechanical analgesia, paw withdrawal threshold); format: in vivo, Sprague Dawley rats; conditions: 150 mg/kg PO
Procedure: The Bennett model of mechanical analgesia is used to assess the analgesic effects of compounds as measured by paw withdrawal threshold. Bennett G J, Xie Y K, “A peripheral mononeuropathy in rat that produces disorders of pain sensation like those seen in man,” Pain 33:87-107, 1988. […] Vehicle animals receive the surgery and then receive vehicle rather than test compound. Animals were tested 1 hr, 24 h and 1 wk post-test compound or vehicle administration.
Male 2-3 month old Sprague Dawley rats were used. Harlan was the supplier for all studies. Rats were housed in Lucite cages with aspen wood chip bedding, maintained on a 12:12 light:dark cycle (lights on at 5 AM), and given ad libitum access to Purina lab chow (USA) and tap water throughout the study.
Rats were anesthetized using inhaled isoflurane (2.5%). Sciatic nerve chronic constriction nerve injury surgery was performed as previously described (Bennett and Xie, 1988). An incision (˜1.5 cm in length) was made with a scalpel blade dorsally through skin on the right hind limb, parallel and posterior to femur. Using a small pointed hemostat, the biceps femoris and gluteus superficialis muscles were separated. Using curved blunt forceps, the common sciatic nerve was isolated and exposed. For the mechanical analgesia studies, the whole sciatic nerve was ligated. Using hemostats/forceps and chromic gut (5-0), the nerve was loosely ligated with a square knot; 3 ligatures, 1 mm apart were placed on the nerve. […] Testing occurred approximately 2 weeks post-surgery.
During testing, rats were acclimated to the surface of a suspended wire mesh grid (1 cm×1 cm, with the wire being 0.3 cm in diameter) for 15-20 min Starting from the smallest, each Von Frey filament was pressed perpendicularly to the plantar surface of the affected (ipsilateral) hind paw until slightly bent and then held for 6 second. If an obvious hind paw withdrawal or a flinching behavior immediately after the withdrawal of the filament was not observed, the next larger filament was used in the same manner. In case of a response, a lower filament was used. This was repeated until six responses were collected.
For all studies, animals were baselined prior to study start to test for allodynia (defined as a paw withdrawal threshold under 5). A subset of animals was tested with gabapentin (150 mg/kg, PO) to ensure at least 50% analgesia. Once it was confirmed animals were ready for study initiation, animals were balanced across groups. All study investigators were blind to treatment conditions. Animals were dosed with 0.1, 1 or 10 mg/kg of test compound via oral gavage (PO), control sets of animals were dosed with gabapentin (150 mg/kg, PO) or vehicle (0.5% Na-CMC in 0.9% sterile saline, PO). Testing occurred 1 h post-dosing with animals retested 24 hrs and 1 week post-dosing. The percent analgesia calculations for each animal were made using the following equation: % analgesia=[(log(x)−y)/((log (z)−y)]*100, where x=the paw withdrawal threshold for the drug-treated animal in grams, y=the average of the log(x) values for the vehicle treated group, and z=the paw withdrawal threshold for naïve animals in grams (historical value of 15 used). The results for Compound AD, where the percentage of analgesia is measured at 1 hour, 24 hours, and 1 week after compound administration are as follows: for 0.1 mg/kg dose: 37.8% at 1 h, 29.7% at 24 h, and 63.1% at 1 wk; for 1 mg/kg dose: 48.8% at 1 h, 20.6% at 24 h, and 19.8% at 1 wk; and for 10 mg/kg dose: 70.3% at 1 h, 38.8% at 24 h, and 11.3% at 1 wk.

[13] = [3H]MK-801 binding, read-out: NMDAR2C: log EC50 (converted)
[14] = Sprague Dawley, rat, in vivo, iv
[15] = Sprague Dawley, rat, plasma, po

T2 sequence (Q13224 27-1484, other chains not shown): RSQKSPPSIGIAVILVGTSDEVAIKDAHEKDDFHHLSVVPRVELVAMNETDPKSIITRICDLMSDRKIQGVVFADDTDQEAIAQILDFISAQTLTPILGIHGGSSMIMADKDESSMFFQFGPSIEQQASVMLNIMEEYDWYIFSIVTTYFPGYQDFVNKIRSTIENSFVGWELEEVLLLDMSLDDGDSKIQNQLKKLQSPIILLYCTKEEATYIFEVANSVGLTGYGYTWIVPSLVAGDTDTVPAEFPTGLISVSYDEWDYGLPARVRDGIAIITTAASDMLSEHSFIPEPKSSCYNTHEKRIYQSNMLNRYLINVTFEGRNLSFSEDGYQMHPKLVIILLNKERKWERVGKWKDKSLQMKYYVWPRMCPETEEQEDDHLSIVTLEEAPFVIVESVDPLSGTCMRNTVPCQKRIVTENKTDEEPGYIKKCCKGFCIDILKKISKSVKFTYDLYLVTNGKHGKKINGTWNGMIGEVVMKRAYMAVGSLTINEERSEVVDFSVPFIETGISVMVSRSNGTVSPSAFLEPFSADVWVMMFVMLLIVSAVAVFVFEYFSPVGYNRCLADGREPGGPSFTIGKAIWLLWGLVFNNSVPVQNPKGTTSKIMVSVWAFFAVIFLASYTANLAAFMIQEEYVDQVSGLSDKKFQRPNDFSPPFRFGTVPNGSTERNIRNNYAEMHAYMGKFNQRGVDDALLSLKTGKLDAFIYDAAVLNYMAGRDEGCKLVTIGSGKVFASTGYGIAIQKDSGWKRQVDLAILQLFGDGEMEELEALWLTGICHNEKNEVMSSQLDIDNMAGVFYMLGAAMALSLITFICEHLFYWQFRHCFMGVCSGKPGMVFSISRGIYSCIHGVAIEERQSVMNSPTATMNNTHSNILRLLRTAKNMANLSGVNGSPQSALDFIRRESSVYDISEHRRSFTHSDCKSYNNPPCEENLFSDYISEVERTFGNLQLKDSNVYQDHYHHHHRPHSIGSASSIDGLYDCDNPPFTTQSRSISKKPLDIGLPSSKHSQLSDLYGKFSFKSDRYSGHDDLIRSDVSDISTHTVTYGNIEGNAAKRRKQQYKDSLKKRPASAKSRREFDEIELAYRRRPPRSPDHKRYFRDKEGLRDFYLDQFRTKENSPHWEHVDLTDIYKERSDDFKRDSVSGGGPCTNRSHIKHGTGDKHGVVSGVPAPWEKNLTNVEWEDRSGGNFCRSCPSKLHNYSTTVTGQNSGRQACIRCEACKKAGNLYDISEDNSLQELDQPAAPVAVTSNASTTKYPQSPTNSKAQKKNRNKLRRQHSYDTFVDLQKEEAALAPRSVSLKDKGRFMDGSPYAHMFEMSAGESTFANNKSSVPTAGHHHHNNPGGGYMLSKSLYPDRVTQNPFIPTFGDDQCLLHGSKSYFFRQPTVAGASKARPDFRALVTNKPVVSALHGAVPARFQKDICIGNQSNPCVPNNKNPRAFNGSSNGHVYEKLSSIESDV
T6 sequence (O15399 28-1336, other chains not shown): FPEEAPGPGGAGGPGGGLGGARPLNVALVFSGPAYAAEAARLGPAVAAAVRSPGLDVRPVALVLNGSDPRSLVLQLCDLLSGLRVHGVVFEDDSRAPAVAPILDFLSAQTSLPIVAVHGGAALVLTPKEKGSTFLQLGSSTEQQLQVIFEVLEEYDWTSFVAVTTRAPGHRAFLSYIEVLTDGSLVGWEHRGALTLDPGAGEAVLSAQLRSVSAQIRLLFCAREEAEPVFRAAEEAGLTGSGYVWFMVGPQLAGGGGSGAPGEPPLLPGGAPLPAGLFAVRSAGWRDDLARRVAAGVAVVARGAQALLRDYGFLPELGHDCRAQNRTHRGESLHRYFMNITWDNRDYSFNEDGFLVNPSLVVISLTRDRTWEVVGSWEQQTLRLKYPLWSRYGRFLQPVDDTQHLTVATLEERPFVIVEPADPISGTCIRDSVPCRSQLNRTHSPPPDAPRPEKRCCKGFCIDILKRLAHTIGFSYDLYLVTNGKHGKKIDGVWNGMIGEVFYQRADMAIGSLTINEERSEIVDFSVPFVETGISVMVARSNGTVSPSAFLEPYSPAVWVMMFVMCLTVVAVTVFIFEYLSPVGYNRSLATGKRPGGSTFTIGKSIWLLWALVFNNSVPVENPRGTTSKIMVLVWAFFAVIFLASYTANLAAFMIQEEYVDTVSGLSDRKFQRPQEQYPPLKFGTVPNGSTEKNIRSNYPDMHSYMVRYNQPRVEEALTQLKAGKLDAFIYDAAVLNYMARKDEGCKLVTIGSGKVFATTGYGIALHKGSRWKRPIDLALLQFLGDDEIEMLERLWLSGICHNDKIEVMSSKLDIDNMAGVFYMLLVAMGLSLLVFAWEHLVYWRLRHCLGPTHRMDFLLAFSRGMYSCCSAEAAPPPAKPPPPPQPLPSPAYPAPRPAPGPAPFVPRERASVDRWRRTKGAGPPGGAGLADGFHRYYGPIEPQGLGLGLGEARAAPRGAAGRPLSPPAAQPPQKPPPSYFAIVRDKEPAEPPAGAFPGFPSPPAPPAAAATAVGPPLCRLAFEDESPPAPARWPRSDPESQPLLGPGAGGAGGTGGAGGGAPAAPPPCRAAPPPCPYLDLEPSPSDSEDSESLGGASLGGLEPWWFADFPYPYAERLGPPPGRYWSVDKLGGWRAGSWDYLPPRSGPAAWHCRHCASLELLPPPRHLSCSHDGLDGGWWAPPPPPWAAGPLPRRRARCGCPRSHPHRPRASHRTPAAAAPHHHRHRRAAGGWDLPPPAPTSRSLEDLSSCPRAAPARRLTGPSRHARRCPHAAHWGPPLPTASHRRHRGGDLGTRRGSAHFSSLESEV
T4 sequence (O15399 28-1336, other chains not shown): as above
T5 sequence (Q14957 20-1233, other chains not shown): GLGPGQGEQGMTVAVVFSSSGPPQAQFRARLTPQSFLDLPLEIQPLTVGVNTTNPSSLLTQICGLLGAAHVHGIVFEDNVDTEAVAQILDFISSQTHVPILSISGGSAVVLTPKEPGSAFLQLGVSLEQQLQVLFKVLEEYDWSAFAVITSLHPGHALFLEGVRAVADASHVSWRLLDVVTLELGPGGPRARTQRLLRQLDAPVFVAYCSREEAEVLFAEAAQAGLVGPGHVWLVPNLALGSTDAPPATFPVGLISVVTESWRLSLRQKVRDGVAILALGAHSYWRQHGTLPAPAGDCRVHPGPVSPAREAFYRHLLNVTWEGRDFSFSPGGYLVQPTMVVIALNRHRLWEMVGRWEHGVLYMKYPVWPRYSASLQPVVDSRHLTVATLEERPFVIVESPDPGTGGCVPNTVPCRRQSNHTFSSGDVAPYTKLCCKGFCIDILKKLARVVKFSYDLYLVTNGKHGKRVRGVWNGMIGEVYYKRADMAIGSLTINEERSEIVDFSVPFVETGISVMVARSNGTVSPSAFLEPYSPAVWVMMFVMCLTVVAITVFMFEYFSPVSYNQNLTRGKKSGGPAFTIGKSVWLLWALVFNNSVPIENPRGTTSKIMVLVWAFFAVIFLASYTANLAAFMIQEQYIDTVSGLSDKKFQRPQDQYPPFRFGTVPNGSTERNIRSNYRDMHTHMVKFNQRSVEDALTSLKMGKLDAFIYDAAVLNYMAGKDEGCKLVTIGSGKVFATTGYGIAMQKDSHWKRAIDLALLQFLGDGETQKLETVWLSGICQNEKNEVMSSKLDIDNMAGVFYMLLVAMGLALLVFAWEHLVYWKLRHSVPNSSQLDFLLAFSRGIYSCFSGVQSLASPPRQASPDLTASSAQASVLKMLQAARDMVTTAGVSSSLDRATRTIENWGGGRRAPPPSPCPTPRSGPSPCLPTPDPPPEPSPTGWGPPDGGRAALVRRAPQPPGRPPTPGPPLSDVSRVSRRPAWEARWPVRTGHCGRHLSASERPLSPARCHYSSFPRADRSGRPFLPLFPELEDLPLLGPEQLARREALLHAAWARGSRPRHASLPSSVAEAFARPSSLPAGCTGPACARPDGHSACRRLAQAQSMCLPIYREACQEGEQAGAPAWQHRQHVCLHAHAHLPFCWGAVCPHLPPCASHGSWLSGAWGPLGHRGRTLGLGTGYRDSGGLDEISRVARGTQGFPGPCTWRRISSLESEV
T3 sequence (Q14957 20-1233, other chains not shown): as above

Compound	Microsomal (Human): percent of compound remaining after 60 minutes [2] [%]	Microsomal (Rat): percent of compound remaining after 60 minutes [3] [%]	Plasma (Human): percent of compound remaining after 60 minutes (Plasma stability (Human)) [%]	Plasma (Rat): percent of compound remaining after 60 minutes (Plasma stability (Rat)) [%]	NMDAR2A: % maximal [3H]MK-801 binding relative to 1 mM glycine [4]	EC50 [5] [nM]	NMDAR2B: % maximal [3H]MK-801 binding relative to 1 mM glycine [5]	NMDAR2D: % maximal [3H]MK-801 binding relative to 1 mM glycine [7]	EC50 [4] [nM]	NMDAR2C A: % maximal [3H]MK-801 binding relative to 1 mM glycine [8]	EC50 [9] [nM]	further results
O=C1NCC12CCC1(CNC1=O)N2Cc1ccccc1 (single isomer, unassigned) [AC-1, 5-benzyl-2,5,8-triazadispiro[3.1.36.24]undecane-1,7-dione]	95	100	100	100	+ (<100%=+)	< 1	+ (<100%=+)	+ (<100%=+)	–	–	–	Max Effect (mean number of 50 kHz USVs per 15 seconds) ([1]; dose 0.001-1 mg/kg): * (*: 6-10.9); Emax ([6]; relative to 1 mM glycine, read-out: NMDAR2C A: % maximal [3H]MK-801 binding relative to 1 mM glycine): < 100%
O=C1NCC12CCC1(CNC1=O)N2Cc1ccccc1 (single isomer, unassigned) [AC-3, 5-benzyl-2,5,8-triazadispiro[3.1.36.24]undecane-1,7-dione]	77	83	92	85	+ (<100%=+)	< 1	+ (<100%=+)	− (−=0)	< 1	+ (<100%=+)	> 100	–
C[C@@H](O)[C@H](NC(=O)C1CCC2(CNC2=O)N1Cc1ccccc1)C(N)=O (single isomer, unassigned) [AM]	95	99	88	87	+ (<100%=+)	–	+ (<100%=+)	–	< 1	− (−=0)	< 1	Max Effect (mean number of 50 kHz USVs per 15 seconds) ([1]; dose 0.1 mg/kg): * (*: 6-10.9); EC50 [10]: < 1 nM; EC50 [6, 13]: > 100 nM; Emax ([9]; relative to 1 mM glycine, read-out: NMDAR2D: % maximal [3H]MK-801 binding relative to 1 mM glycine): < 100%; Vss (IV pharmacokinetics): 1.21 L/kg; AUC(0-t) (IV pharmacokinetics; [14]): 1000 ng·h/mL; clearance (IV pharmacokinetics; [14]): 33.3 mL/min/kg; half-life (IV pharmacokinetics; [14]): 2.38 h; C0 (IV pharmacokinetics; Sprague Dawley, rat, in vivo, iv, read-out: C0): 3460 ng/mL; CSF Cmax ([11]; CSF): 0 ng/mL; Brain Cmax ([11]; brain): 0 ng/mL; AUC(0-t) [11, 15]: 97.6 ng·h/mL; bioavailability [11, 15]: 2%; Tmax ([11]; Sprague Dawley, rat, plasma, po, normal saline, read-out: Tmax): 0.33 h; Cmax ([11]; Sprague Dawley, rat, plasma, po, plasma, read-out: Cmax): 34.2 ng/mL
CC(C)(C)OC(=O)N1CC2(CNC2=O)CC12CNC2=O (centres unmarked) [AY-1]	–	–	–	–	− (−=0)	< 1	+ (<100%=+)	+ (<100%=+)	> 100	+ (<100%=+)	–	EC50 [8, 13]: < 1 nM; EC50 ([7]; [3H]MK-801 binding, read-out: NMDAR2D: log EC50 (converted)): < 1 nM
NCC1(CC(=O)O)CCCCC1 [gabapentin, reference compound]	–	–	–	–	–	–	–	–	–	–	–	analgesia, control group of the study ([12]; 1 week post-administration): under 5%; percentage of analgesia, example (typical) control value ([12]; 1 wk): 0%; percentage of analgesia, example (typical) control value ([12]; 1 h): 72%; analgesia, control group of the study ([12]; 1 h post-administration): at least 50%; percentage of analgesia, example (typical) control value ([12]; 24 h): 16%; analgesia, control group of the study ([12]; 24 h post-administration): under 5%
